# Experimental data reported in publication PMC8708872, “Discovery of a Novel Template, 7-Substituted 7-Deaza-4′-Thioadenosine Derivatives as Multi-Kinase Inhibitors” (Pharmaceuticals, 2021).
# Columns and labels:
# Assay type in all cases: binding
# IGF1R = target: T1, IGF1R (Homo sapiens, UniProt P08069); experiment: Kinome scan; details: 1000 nM
# T1 construct: purchased Eurofins DiscoverX Corporation
# Procedure: (§1) The kinome scan assays were carried out at Eurofins DiscoverX Corporation. For kinome scan profiling of compound 1g, it was screened at 1μM against 96 kinases (N = 2 independent experiments). The results for binding interactions are reported as % inhibition, where higher values indicate strong affinity; see the Supporting Information, Table S1 for full kinome profile.
# [1] = target: T2, ABL1(E255K)-phosphorylated (Homo sapiens, UniProt P00519, E255K); experiment: Kinome scan; details: 1000 nM
# T2 construct: purchased Eurofins DiscoverX Corporation
# Procedure: as §1
# EGFR(L858R) = target: T3, EGFR(L858R) (Homo sapiens, UniProt P00533, L858R); experiment: Kinome scan; details: 1000 nM
# T3 construct: purchased Eurofins DiscoverX Corporation
# Procedure: as §1
# PDGFRA = target: T4, PDGFRA (Homo sapiens, UniProt P16234); experiment: Kinome scan; details: 1000 nM
# T4 construct: purchased Eurofins DiscoverX Corporation
# Procedure: as §1
# MARK3 = target: T5, MARK3 (Homo sapiens, UniProt P27448); experiment: Kinome scan; details: 1000 nM
# T5 construct: purchased Eurofins DiscoverX Corporation
# T5 sequence (P27448 whole entry): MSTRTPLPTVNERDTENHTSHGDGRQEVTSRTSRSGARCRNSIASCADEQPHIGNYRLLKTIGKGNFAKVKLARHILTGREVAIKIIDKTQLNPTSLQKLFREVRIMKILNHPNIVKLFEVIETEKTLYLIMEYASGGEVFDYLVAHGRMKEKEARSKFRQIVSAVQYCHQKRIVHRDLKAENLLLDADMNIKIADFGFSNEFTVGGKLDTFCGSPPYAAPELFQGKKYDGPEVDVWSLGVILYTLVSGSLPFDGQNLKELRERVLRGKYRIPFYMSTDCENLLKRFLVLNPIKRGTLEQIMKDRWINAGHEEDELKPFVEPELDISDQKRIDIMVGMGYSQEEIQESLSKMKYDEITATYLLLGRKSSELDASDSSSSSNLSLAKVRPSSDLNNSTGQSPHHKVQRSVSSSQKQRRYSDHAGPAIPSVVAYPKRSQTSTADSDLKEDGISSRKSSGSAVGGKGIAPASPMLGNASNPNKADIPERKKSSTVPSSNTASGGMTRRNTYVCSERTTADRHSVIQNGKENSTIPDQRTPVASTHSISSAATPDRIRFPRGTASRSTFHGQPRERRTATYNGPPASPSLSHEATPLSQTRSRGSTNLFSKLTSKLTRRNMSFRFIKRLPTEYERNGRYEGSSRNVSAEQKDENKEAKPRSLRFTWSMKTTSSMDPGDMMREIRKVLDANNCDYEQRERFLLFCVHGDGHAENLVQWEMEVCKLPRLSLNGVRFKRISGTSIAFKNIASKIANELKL
# Procedure: as §1
# [2] = target: T6, RSK2(Kin.Dom.1-N-terminal) (Homo sapiens, UniProt P51812); experiment: Kinome scan; details: 1000 nM
# T6 construct: RSK2(Kin.Dom.1-N-terminal); purchased Eurofins DiscoverX Corporation
# Procedure: as §1
# ALK = target: T7, ALK (Homo sapiens, UniProt Q9UM73); experiment: Kinome scan; details: 1000 nM
# T7 construct: purchased Eurofins DiscoverX Corporation
# Procedure: as §1
# TIE2 = target: T8, TIE2 (Homo sapiens, UniProt Q02763); experiment: Kinome scan; details: 1000 nM
# T8 construct: purchased Eurofins DiscoverX Corporation
# Procedure: as §1
# p38-beta = target: T9, p38-beta (Homo sapiens, UniProt Q15759); experiment: Kinome scan; details: 1000 nM
# T9 construct: purchased Eurofins DiscoverX Corporation
# T9 sequence (Q15759 whole entry): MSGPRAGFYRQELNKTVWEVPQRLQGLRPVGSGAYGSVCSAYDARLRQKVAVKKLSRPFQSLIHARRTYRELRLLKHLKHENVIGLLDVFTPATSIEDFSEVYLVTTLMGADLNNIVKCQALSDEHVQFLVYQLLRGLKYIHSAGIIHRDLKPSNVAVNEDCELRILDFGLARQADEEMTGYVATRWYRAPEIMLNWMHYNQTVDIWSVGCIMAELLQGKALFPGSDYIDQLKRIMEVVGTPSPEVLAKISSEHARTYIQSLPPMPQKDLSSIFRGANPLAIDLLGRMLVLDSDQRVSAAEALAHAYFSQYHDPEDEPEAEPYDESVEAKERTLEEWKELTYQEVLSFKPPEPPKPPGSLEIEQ
# Procedure: as §1
# AKT2 = target: T10, AKT2 (Homo sapiens, UniProt P31751); experiment: Kinome scan; details: 1000 nM
# T10 construct: purchased Eurofins DiscoverX Corporation
# Procedure: as §1
# KIT(V559D,T670I) = target: T11, KIT(V559D,T670I) (Homo sapiens, UniProt P10721, T670I/V559D); experiment: Kinome scan; details: 1000 nM
# T11 construct: purchased Eurofins DiscoverX Corporation
# T11 sequence (P10721 26-976 V559D/T670I): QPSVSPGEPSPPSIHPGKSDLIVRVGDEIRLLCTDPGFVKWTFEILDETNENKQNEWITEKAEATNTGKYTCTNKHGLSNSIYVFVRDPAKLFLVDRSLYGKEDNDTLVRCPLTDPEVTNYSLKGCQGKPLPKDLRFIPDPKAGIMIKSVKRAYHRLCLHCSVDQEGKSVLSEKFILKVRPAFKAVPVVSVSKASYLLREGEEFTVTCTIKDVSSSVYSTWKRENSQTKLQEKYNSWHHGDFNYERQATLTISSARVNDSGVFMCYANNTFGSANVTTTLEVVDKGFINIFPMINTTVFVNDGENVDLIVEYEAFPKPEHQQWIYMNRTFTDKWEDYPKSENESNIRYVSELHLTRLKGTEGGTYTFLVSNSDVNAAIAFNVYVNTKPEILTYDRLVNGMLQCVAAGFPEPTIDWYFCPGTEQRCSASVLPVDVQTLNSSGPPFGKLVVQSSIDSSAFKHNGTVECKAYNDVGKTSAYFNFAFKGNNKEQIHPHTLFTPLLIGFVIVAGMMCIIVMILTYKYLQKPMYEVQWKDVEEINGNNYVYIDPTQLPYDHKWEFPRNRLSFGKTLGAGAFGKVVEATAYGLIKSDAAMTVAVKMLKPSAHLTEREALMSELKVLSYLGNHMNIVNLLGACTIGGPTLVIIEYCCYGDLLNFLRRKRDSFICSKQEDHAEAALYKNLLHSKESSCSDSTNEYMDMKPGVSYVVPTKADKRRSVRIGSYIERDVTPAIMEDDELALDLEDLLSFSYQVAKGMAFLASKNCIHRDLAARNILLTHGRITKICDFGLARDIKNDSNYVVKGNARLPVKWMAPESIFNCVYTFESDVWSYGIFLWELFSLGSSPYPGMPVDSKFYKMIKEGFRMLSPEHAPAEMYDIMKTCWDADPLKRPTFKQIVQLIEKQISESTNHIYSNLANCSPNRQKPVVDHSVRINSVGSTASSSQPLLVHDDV
# Procedure: as §1
# ABL1-phosphorylated = target: T12, ABL1-phosphorylated (Homo sapiens, UniProt P00519); experiment: Kinome scan; details: 1000 nM
# T12 construct: purchased Eurofins DiscoverX Corporation
# Procedure: as §1
# PIK3CG = target: T13, PIK3CG (Homo sapiens, UniProt P48736); experiment: Kinome scan; details: 1000 nM
# T13 construct: purchased Eurofins DiscoverX Corporation
# Procedure: as §1
# ULK2 = target: T14, ULK2 (Homo sapiens, UniProt Q8IYT8); experiment: Kinome scan; details: 1000 nM
# T14 construct: purchased Eurofins DiscoverX Corporation
# Procedure: as §1
# CSNK1D = target: T15, CSNK1D (Homo sapiens, UniProt P48730); experiment: Kinome scan
# T15 construct: purchased Eurofins DiscoverX Corporation
# T15 sequence (P48730 whole entry): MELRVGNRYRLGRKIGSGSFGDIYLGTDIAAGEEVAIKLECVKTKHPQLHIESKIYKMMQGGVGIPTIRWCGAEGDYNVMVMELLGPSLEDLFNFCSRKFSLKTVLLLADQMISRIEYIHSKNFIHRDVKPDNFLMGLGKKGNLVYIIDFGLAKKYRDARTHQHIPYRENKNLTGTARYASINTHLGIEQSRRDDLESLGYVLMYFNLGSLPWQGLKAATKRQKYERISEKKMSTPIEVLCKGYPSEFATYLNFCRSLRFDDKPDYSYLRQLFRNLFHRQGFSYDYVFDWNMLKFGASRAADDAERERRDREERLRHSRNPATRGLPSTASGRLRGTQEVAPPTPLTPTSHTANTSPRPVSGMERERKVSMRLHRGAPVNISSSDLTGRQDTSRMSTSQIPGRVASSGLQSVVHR
# Procedure: as §1
# CSF1R = target: T16, CSF1R (Homo sapiens, UniProt P07333); experiment: Kinome scan; details: 1000 nM
# T16 construct: purchased Eurofins DiscoverX Corporation
# Procedure: as §1
# CHEK1 = target: T17, CHEK1 (Homo sapiens, UniProt O14757); experiment: Kinome scan; details: 1000 nM
# T17 construct: purchased Eurofins DiscoverX Corporation
# Procedure: as §1
# EPHA2 = target: T18, EPHA2 (Homo sapiens, UniProt P29317); experiment: Kinome scan; details: 1000 nM
# T18 construct: purchased Eurofins DiscoverX Corporation
# Procedure: as §1
# RIOK2 = target: T19, RIOK2 (Homo sapiens, UniProt Q9BVS4); experiment: Kinome scan; details: 1000 nM
# T19 construct: purchased Eurofins DiscoverX Corporation
# T19 sequence (Q9BVS4 whole entry): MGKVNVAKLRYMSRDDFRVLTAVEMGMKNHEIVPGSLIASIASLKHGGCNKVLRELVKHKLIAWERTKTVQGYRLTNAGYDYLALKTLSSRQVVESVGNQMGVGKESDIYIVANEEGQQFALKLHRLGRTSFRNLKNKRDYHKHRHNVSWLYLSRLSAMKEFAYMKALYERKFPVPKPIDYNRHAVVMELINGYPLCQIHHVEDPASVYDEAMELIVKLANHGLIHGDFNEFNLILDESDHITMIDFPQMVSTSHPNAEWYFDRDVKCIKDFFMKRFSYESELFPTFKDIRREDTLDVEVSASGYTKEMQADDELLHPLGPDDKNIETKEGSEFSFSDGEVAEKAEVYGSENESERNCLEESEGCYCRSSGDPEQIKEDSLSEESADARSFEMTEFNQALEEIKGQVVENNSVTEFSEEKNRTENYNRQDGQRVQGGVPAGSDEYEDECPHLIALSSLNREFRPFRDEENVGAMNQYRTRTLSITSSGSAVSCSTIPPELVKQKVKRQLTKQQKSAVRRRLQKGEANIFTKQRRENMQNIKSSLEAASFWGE
# Procedure: as §1
# FGFR3 = target: T20, FGFR3 (Homo sapiens, UniProt P22607); experiment: Kinome scan; details: 1000 nM
# T20 construct: purchased Eurofins DiscoverX Corporation
# Procedure: as §1
# SNARK = target: T21, SNARK (Homo sapiens, UniProt Q9H093); experiment: Kinome scan; details: 1000 nM
# T21 construct: purchased Eurofins DiscoverX Corporation
# Procedure: as §1
# SRC = target: T22, SRC (Homo sapiens, UniProt P12931); experiment: Kinome scan; details: 1000 nM
# T22 construct: purchased Eurofins DiscoverX Corporation
# Procedure: as §1
# CSNK1G2 = target: T23, CSNK1G2 (Homo sapiens, UniProt P78368); experiment: Kinome scan; details: 1000 nM
# T23 construct: purchased Eurofins DiscoverX Corporation
# T23 sequence (P78368 whole entry): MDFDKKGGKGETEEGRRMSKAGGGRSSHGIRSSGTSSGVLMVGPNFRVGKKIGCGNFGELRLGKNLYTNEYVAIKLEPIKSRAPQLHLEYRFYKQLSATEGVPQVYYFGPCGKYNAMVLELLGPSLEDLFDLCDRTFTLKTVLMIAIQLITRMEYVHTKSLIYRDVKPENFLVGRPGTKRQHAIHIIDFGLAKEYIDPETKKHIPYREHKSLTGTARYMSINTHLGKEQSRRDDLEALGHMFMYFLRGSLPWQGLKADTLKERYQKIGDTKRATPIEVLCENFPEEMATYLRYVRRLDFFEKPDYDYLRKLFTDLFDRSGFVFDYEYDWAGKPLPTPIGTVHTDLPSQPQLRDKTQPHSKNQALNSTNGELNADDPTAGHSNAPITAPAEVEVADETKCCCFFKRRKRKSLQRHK
# Procedure: as §1
# MEK1 = target: T24, MEK1 (Homo sapiens, UniProt Q02750); experiment: Kinome scan; details: 1000 nM
# T24 construct: purchased Eurofins DiscoverX Corporation
# Procedure: as §1
# ERK1 = target: T25, ERK1 (Homo sapiens, UniProt P27361); experiment: Kinome scan; details: 1000 nM
# T25 construct: purchased Eurofins DiscoverX Corporation
# Procedure: as §1
# PIM2 = target: T26, PIM2 (Homo sapiens, UniProt Q9P1W9); experiment: Kinome scan; details: 1000 nM
# T26 construct: purchased Eurofins DiscoverX Corporation
# T26 sequence (Q9P1W9 whole entry): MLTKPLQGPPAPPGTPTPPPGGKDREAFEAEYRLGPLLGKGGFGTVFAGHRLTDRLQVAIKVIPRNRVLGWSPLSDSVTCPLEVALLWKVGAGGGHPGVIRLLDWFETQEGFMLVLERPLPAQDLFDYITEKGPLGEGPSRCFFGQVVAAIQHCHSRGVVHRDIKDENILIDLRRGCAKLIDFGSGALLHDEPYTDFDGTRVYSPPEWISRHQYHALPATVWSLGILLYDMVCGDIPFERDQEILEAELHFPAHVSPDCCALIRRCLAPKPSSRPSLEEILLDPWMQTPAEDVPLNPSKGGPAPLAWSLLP
# Procedure: as §1
# KIT = target: T27, KIT (Homo sapiens, UniProt P10721); experiment: Kinome scan; details: 1000 nM
# T27 construct: purchased Eurofins DiscoverX Corporation
# T27 sequence (P10721 26-976): as the sequence (P10721 26-976 V559D/T670I) above, with D534V, I645T counted along it
# Procedure: as §1
# PIK3CA = target: T28, PIK3CA (Homo sapiens, UniProt P42336); experiment: Kinome scan; details: 1000 nM
# T28 construct: purchased Eurofins DiscoverX Corporation
# T28 sequence (P42336 whole entry): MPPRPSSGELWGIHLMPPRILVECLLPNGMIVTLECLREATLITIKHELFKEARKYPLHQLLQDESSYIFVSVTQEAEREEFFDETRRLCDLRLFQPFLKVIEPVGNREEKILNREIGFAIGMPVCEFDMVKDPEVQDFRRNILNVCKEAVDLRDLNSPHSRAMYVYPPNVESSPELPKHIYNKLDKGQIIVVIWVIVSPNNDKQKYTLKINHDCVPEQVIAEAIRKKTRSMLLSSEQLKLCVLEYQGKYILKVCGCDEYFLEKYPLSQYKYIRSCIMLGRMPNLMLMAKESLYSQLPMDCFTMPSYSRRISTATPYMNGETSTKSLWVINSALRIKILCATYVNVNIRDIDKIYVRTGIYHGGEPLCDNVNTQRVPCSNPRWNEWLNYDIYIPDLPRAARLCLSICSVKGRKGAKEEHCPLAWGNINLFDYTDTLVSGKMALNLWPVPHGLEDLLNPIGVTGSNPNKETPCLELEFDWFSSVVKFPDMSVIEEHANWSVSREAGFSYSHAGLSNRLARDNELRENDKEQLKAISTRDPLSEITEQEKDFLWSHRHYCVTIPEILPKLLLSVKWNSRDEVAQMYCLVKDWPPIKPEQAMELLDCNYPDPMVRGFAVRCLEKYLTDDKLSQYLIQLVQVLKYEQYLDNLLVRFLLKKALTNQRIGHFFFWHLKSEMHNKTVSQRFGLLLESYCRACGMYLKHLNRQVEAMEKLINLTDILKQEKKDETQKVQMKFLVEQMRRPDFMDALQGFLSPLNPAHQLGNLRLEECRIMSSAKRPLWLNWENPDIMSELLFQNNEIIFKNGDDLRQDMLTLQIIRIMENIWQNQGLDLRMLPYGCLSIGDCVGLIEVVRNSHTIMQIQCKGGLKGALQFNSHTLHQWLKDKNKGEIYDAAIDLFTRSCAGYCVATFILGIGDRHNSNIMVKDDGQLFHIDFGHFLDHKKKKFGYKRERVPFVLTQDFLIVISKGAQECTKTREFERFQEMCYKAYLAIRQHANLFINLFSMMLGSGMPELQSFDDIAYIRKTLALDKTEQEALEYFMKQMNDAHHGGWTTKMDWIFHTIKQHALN
# Procedure: as §1
# AURKA = target: T29, AURKA (Homo sapiens, UniProt O14965); experiment: Kinome scan; details: 1000 nM
# T29 construct: purchased Eurofins DiscoverX Corporation
# Procedure: as §1
# GSK3B = target: T30, GSK3B (Homo sapiens, UniProt P49841); experiment: Kinome scan; details: 1000 nM
# T30 construct: purchased Eurofins DiscoverX Corporation
# Procedure: as §1
# Kinome scan = details: 1000 nM, ZAP70 (Entrez gene symbol printed STK32C)
# Procedure: as §1
# MEK2 = target: T31, MEK2 (Homo sapiens, UniProt P36507); experiment: Kinome scan; details: 1000 nM
# T31 construct: purchased Eurofins DiscoverX Corporation
# Procedure: as §1
# BRAF(V600E) = target: T32, BRAF(V600E) (Homo sapiens, UniProt P15056, V600E); experiment: Kinome scan; details: 1000 nM
# T32 construct: purchased Eurofins DiscoverX Corporation
# Procedure: as §1
# PRKCE = target: T33, PRKCE (Homo sapiens, UniProt Q02156); experiment: Kinome scan; details: 1000 nM
# T33 construct: purchased Eurofins DiscoverX Corporation
# Procedure: as §1
# PIK3C2B = target: T34, PIK3C2B (Homo sapiens, UniProt O00750); experiment: Kinome scan; details: 1000 nM
# T34 construct: purchased Eurofins DiscoverX Corporation
# Procedure: as §1
# PIM1 = target: T35, PIM1 (Homo sapiens, UniProt P11309); experiment: Kinome scan; details: 1000 nM
# T35 construct: purchased Eurofins DiscoverX Corporation
# Procedure: as §1
# [3] = target: T36, JAK2(JH1domain-catalytic) (Homo sapiens, UniProt O60674); experiment: Kinome scan; details: 1000 nM
# T36 construct: JAK2(JH1domain-catalytic); purchased Eurofins DiscoverX Corporation
# Procedure: as §1
# PLK1 = target: T37, PLK1 (Homo sapiens, UniProt P53350); experiment: Kinome scan; details: 1000 nM
# T37 construct: purchased Eurofins DiscoverX Corporation
# Procedure: as §1
# MKNK1 = target: T38, MKNK1 (Homo sapiens, UniProt Q9BUB5); experiment: Kinome scan; details: 1000 nM
# T38 construct: purchased Eurofins DiscoverX Corporation
# Procedure: as §1
# INSR = target: T39, INSR (Homo sapiens, UniProt P06213); experiment: Kinome scan; details: 1000 nM
# T39 construct: purchased Eurofins DiscoverX Corporation
# Procedure: as §1
# AXL = target: T40, AXL (Homo sapiens, UniProt P30530); experiment: Kinome scan; details: 1000 nM
# T40 construct: purchased Eurofins DiscoverX Corporation
# Procedure: as §1
compound,measurement,setting,value
"C#Cc1cn([C@@H]2S[C@H](CO)[C@@H](O)[C@H]2O)c2ncnc(N)c12 [Compound 1g, (2R,3R,4S,5R)-2-(4-Amino-5-ethynyl-7H-pyrrolo[2,3-d]pyrimidin-7-yl)-5-(hydroxymethyl)tetrahydrothiophene-3,4-diol]",inhibition at 1 µM,IGF1R,7%
same,inhibition at 1 µM,[1],18%
same,inhibition at 1 µM,EGFR(L858R),0%
same,inhibition at 1 µM,PDGFRA,0%
same,inhibition at 1 µM,MARK3,0%
same,inhibition at 1 µM,[2],55%
same,inhibition at 1 µM,ALK,31%
same,inhibition at 1 µM,TIE2,6%
same,inhibition at 1 µM,p38-beta,3%
same,inhibition at 1 µM,AKT2,4%
same,inhibition at 1 µM,"KIT(V559D,T670I)",17%
same,inhibition at 1 µM,ABL1-phosphorylated,35%
same,inhibition at 1 µM,PIK3CG,0%
same,inhibition at 1 µM,ULK2,0%
same,remaining binding at 1 µM,"CSNK1D; 1 μM, read-out: activity remaining, CK1δ (CSNK1D)",< 20%
same,inhibition at 1 µM,"CSNK1D; 1000 nM, CSNK1D",91.3%
same,inhibition at 1 µM,CSF1R,20%
same,inhibition at 1 µM,CHEK1,0%
same,inhibition at 1 µM,EPHA2,28%
same,inhibition at 1 µM,RIOK2,0%
same,inhibition at 1 µM,FGFR3,10%
same,inhibition at 1 µM,SNARK,0%
same,inhibition at 1 µM,SRC,6%
same,inhibition at 1 µM,CSNK1G2,54%
same,inhibition at 1 µM,MEK1,74%
same,inhibition at 1 µM,ERK1,4%
same,inhibition at 1 µM,PIM2,3%
same,inhibition at 1 µM,KIT,1%
same,inhibition at 1 µM,PIK3CA,7%
same,inhibition at 1 µM,AURKA,22%
same,inhibition at 1 µM,GSK3B,0%
same,% inhibition,Kinome scan,0.0%
same,inhibition at 1 µM,MEK2,69%
same,inhibition at 1 µM,BRAF(V600E),0%
same,inhibition at 1 µM,PRKCE,0%
same,inhibition at 1 µM,PIK3C2B,1%
same,inhibition at 1 µM,PIM1,37%
same,inhibition at 1 µM,[3],35%
same,inhibition at 1 µM,PLK1,0%
same,inhibition at 1 µM,MKNK1,0%
same,inhibition at 1 µM,INSR,5%
same,inhibition at 1 µM,AXL,7%
